# Experimental data taken from a melting point compilation (Tetko et al.; mined from patent text by program, amines drawn as free bases though some values may be those of a salt).
row,Structure (SMILES),melting point
1,COc1ccc(-c2c(Cl)c(CN3C(=O)CCC3=O)nc3sc4c(c23)CC/C(=N/O)C4)cc1,248 to 249 °C
2,CCCCCCCCCCCCCCCc1cccc(OCC#CC(=O)C(F)(F)F)c1,35 to 36 °C
3,N#Cc1ccc(NN)cc1,84 to 87 °C
4,Cc1ccc(C=CCC#N)cc1,60 to 61 °C
5,CCCCCCCCSCCSc1nc(N)n[nH]1,85 to 86 °C
6,CC(=O)N1CCC(C(=O)c2ccc(Br)cc2F)CC1,111 to 113 °C
7,CC(C)CCCC(C)C1CCC2C3CC=C4CC(N)CCC4(C)C3CCC12C (stereo not drawn),92 to 94 °C
8,Cc1nnc(SCC2=C(C(=O)O)N3C(=O)C(N)C3SC2)s1 (stereo not drawn),206 °C
9,COc1cc(C(=O)Nc2c(Cl)cc3c(Br)n[nH]c3c2C(=O)NC2(C3CC3)CC2)n(-c2ncccc2Cl)n1,190 to 194 °C
10,CCCc1nc(OC)c(N(C)C(=O)N2CCN(c3cc(OC)cc(OC)c3)CC2)cc1C,106 to 107 °C
11,CC(=O)c1ccc2c(c1)C(C)(C)c1cccnc1O2,106 to 108 °C
12,COc1nc(C)c(C)nc1N(C)C(=O)N1CCN(c2cc(Cl)cc(Cl)c2)CC1,97 to 99 °C
13,CC1(C)C(=O)Nc2cc3[nH]cnc3cc21,278 to 280 °C
14,CC1NC(=O)NN=C1c1ccc(Br)cc1 (stereo not drawn),214 to 215 °C
15,CCCC(=O)c1cc2c(=O)n(NS(C)(=O)=O)c(=O)[nH]c2cc1C(F)(F)F,236 to 239 °C
16,COc1ccc(C2CNC(=O)C2)cc1I (stereo not drawn),158 °C
17,CCN1C(=O)C(C)(C)C(=O)N(C)c2cc(CN(CCc3cccnc3)Cc3scnc3C)ccc21,118 to 120 °C

row,Structure (SMILES),melting point
1,Cc1ccc(-c2nc3c(C)cccc3c(=O)[nH]2)c(Cl)c1,234 °C
2,O=C1CCCCC1c1cnc2ccccc2c1 (stereo not drawn),114 to 115 °C
3,Cc1c(S(=O)(=O)c2ccc(=O)[nH]n2)oc2cccc(Cl)c12,232 to 233 °C
4,CCOC(=O)c1nn(-c2ccc(OC)cc2)c2c1CCC2,108 to 109 °C
5,COC(C)C#Cc1ncn2c1CN(C)C(=O)c1c(Cl)cccc1-2 (stereo not drawn),139 to 141 °C
6,CN(C)Cc1ccc(CSCCNC(=O)C=CC(=O)NCCCOc2cccc(CN3CCCC3)c2)o1,126 to 128 °C
7,CON1CCC2(CC1)SC(=O)C(c1c(C)cc(C)cc1C)=C2O,67 to 71 °C
8,Cc1nn(C)c(N)c1C(=O)Nc1cccc(Cl)c1,87 to 92 °C
9,O=C1C2CCCCC2C(=O)N1CCS (stereo not drawn),79 to 80 °C
10,Cc1cc(C2CCN(S(=O)(=O)C(C)(C)C(=O)NO)CC2)ccc1-c1cccc(OC[C@@H](O)CO)c1,152 to 154 °C
11,OC(CSc1ccc(Cl)cc1)Cn1ccnc1 (stereo not drawn),108 to 109 °C
12,"CCCN1c2ccc3c(c2CC1C(N)=O)CC(N)CC3 (single isomer, unassigned; (+))",230 °C
13,Cc1nc2c3c(ccc2n1C)C(=O)N1C(=O)C(C)(C(C)C)N=C31 (stereo not drawn),258 to 263 °C
14,CCn1c(=O)c2c(nc(/C=C/c3cc(C)c(OC)cc3C)n2C)n(CC)c1=O,235 to 236 °C
15,O=C(CC1CCCCC1)c1ccccc1,61 to 67 °C
16,Cc1cc(Cn2nc(C(F)(F)F)cc2C(F)(F)F)ccc1NC(=O)c1cccc(Cl)c1C(=O)NC(C)(C)C(=O)O,179 to 184 °C

# The remaining lines, values ahead:
row,melting point,Structure (SMILES)
1,153 to 154 °C,CN(C)c1cccc2c(S(=O)(=O)Nc3ccc(Cl)nn3)cccc12
2,115 to 117 °C,CCC1c2cccn2-c2ccc(F)cc2N1C(=O)c1cccc(O)c1 (stereo not drawn)
3,99 to 100 °C,COc1ccc(Cl)n2nc(SCc3ccccc3)nc12
4,66 to 75 °C,COC(=O)c1ccc(OCCNC(=O)C2Cc3ccccc3N2S(=O)(=O)c2ccc(-c3ccc(F)cc3C)cc2)cc1F (stereo not drawn)
5,198 to 202 °C,Cc1cc(N)cc(C)c1Oc1ccc(O)c(C(=O)c2ccc(F)cc2)c1
6,263 to 265 °C,Cc1ccc(N2C(=O)C(O)=C(C(=O)c3ccc(C(C)C)cc3)C2c2ccc(OC(F)F)cc2)nn1 (stereo not drawn)
7,263 to 266 °C,O=C1N(Cc2ccc(C(F)(F)F)o2)c2cccc(-c3cncnc3)c2C12COc1cc3c(cc12)CCO3 (stereo not drawn)
8,207 to 209 °C,CS(=O)(=O)c1ccc(CCN2CC=C(c3c[nH]c(-c4ccc(F)cc4)c3-c3ccncc3)CC2)cc1
9,91 to 92 °C,CO/C=C(/C(=O)OC)c1ccccc1COc1cccc(Cl)n1
10,93 to 96 °C,Cn1c2c(c3ccccc31)CC(OC(=O)c1ccccc1)CC2 (stereo not drawn)
11,79 to 80.5 °C,CCN(CC)CCOc1cccc2c1c1ccccc1n2Cc1ccccc1
12,137 to 139 °C,CCOC(=O)c1cccc2c(=O)c(C)c(-c3ccc(OC)cc3)oc12
13,280 to 285 °C,CCCC(c1ccccc1)c1ccc(-c2cnn3c(O)ncnc23)cc1 (stereo not drawn)
14,156 to 157 °C,COc1ccc(CC(=O)NC(NC(=NC#N)Nc2ccccc2C)C(C)(C)C)cc1OC (stereo not drawn)
15,195 °C,Cc1c(-c2ccccc2)c(OCc2ncnn2C)nn2c(-c3ccccc3)nnc12
16,196 to 199 °C,O=C1CC(C(=O)NC(Cc2c[nH]cn2)C(=O)OCc2ccccc2)N1 (stereo not drawn)
17,85 to 87 °C,CCOc1cc2ncc(C#N)c(Nc3ccc(OCc4ccccc4)c(Cl)c3)c2cc1NC(=O)CC(CN1CCCC1)N1CCCC1 (stereo not drawn)
18,108 °C,N#CCCCCCc1nc(-c2ccc(Cl)cc2)c(-c2ccc(Cl)cc2)o1

row,melting point,Structure (SMILES)
1,207 to 208 °C,O=C(NNc1nc(-c2ccccc2)c2cc(Cl)ccc2n1)C(F)(F)F
2,85 to 90 °C,Cc1noc(NS(=O)(=O)c2ccccc2-c2ccc(-c3ccon3)cc2)c1C
3,126 °C,CC(C)(C)[Si](OCC1OC(n2ccc(N)nc2=S)C(O)(CC[Si](C)(C)C)C1O)(c1ccccc1)c1ccccc1 (stereo not drawn)
4,138 to 140 °C,O=C1CCC(n2nc(-c3c(-c4ccccc4)nn4ccccc34)ccc2=O)CC1
5,> 300 °C,O=c1[nH]c2ccccc2cc1-c1csc(NS(=O)(=O)c2ccc(Cl)cc2)n1
6,165 to 167 °C,CCCCc1nc2cccc(C(=O)O)c2n1Cc1ccc(-n2cccc2-c2nnn[nH]2)cc1
7,92 to 95 °C,COc1ccc(C(=O)N2C(=O)CCC2CCC(=O)OCc2ccccc2)cc1OCc1ccccc1 (stereo not drawn)
8,74 to 76 °C,Cc1ccc(-c2c(CO)n(CC(C)C)c(=O)c3ccc(OCc4ccccc4)cc23)cc1
9,163 °C,COC(=O)c1ccc(C(C)(O)c2cc3cc(Cl)ccc3n2S(=O)(=O)c2ccc(C(C)C)cc2)cc1 (stereo not drawn)
10,181 to 183 °C,O=C1c2ccccc2C(=O)N1c1ccc(Cl)c2c1CC(CO)O2 (stereo not drawn)
11,46 to 48 °C,COc1cc(CC2SC(=O)NC2=O)ccc1OCCN1c2ccccc2Sc2ccccc21 (stereo not drawn)
12,70 to 71 °C,COc1ccc([C@@H]2Sc3cc(Cl)ccc3N(CCCN3CCN(c4ccccc4)CC3)C(=O)[C@@H]2O)cc1 (relative stereo)
13,308 °C,O=c1[nH]c2c3ccccc3ccc2n(Cc2ccccc2)c1=O
14,226 °C,Nc1nc(-c2ccc3ncccc3c2)c(-c2ccccn2)s1
15,67 to 68 °C,CCCC[C@H](NC(=O)[C@H](CC(C)C)NC(=O)OCc1ccc(F)cc1)C(=O)CSCc1ccco1
16,177 to 178 °C,CSC1C(=O)Nc2cc(-c3ccccc3)ccc21 (stereo not drawn)
17,208 °C,CCN(CC)C(=O)c1nn(-c2cccc(OC)c2)c(=O)c2c1c1ccc(Cl)cc1n2C
